What was measured:
[1] = Fluorescence spectrum (maximum fluorescence wavelength); format: physicochemical
From the text: When the case where a mixed liquid of 2-NBDG and 2-TRLG was used as the mixed liquid of a D-glucose derivative that has a fluorescent chromophore in the molecule and is specifically incorporated into cells and an L-glucose derivative that has, in the molecule, a fluorescent chromophore that emits fluorescence at a wavelength different from that of the fluorescence emitted by the D-glucose derivative that has a fluorescent chromophore in the molecule and is specifically incorporated into cells is cited as an example, the maximum fluorescence wavelength of the former is from 540 nm to 550 nm, and the maximum fluorescence wavelength of the latter is from 600 nm to 610 nm. Therefore, when the fluorescence at a wavelength in the vicinity of each of the maximum fluorescence wavelengths is detected for the solution obtained by mixing both glucose derivatives, the green fluorescence emitted by 2-NBDG and the red fluorescence emitted by 2-TRLG can be detected, respectively, and as a result of combining the both fluorescence spectra detected, yellow fluorescence can be detected. After administration of the mixed liquid of 2-NBDG and 2-TRLG to cells, when 2-NBDG is specifically incorporated into the cells, green fluorescence is detected from the inside of the cells. […] Therefore, by detecting the green fluorescence emitted by 2-NBDG after the mixed liquid of 2-NBDG and 2-TRLG is administered to cells, the specific incorporation of D-glucose into cells relative to L-glucose can be accurately evaluated in real time.
Incidentally, the validity of this evaluation result is supported by the result that when the mixed solution of 20 μM 2-TRLG and 100 μM 2-NBDG is used, green fluorescence emitted by 2-NBDG can be detected by detecting fluorescence at around 540 nm, and red fluorescence emitted by 2-TRLG can be detected by detecting fluorescence at around 610 nm (in the case of pH 7.4, the maximum fluorescence wavelength of 2-NBDG is 540 nm, and the maximum fluorescence wavelength of 2-TRLG is 610 nm, see FIG. 4). […]

Escherichia coli K12 = test: Incorporation of 2-NBDG or 2-NBDLG into Escherichia coli (evaluation for the state of Escherichia coli); format: cell-based; settings: for difference in fluorescence detection between 2-NBDG and 2-NBDLG: dead cells prepared by treating live cells with 70% ethanol at room temperature for 10 minutes; for fluorescence due to the incorporation into the cells: live cells, 50 μM, 37° C. for 10 minutes
Protocol: Escherichia coli K12 was cultured with shaking overnight at 37° C. A 1 mL portion of the culture was centrifuged to collect cells, and the cells were suspended in 1 mL of phosphate buffered saline (PBS, a mixed solution of 0.01 M phosphate buffer and 0.137 M NaCl at pH 7.4). A 90 μL portion of the suspension was taken out, and 10 μL of the 2-NBDG solution or the 2-NBDLG solution was added thereto to give a final concentration of 50 μM, and then, an incorporation reaction was allowed to proceed at 37° C. for 10 minutes. After the reaction, the cells were collected by centrifugation and resuspended in PBS, and the cells were microscopically observed (objective lens ×10) and recorded using a CCD camera for microscopic observation.

[2] = system: acutely isolated substantia nigra pars reticulata neurons; test: Application of 2-NBDG or 2-NBDLG to acutely isolated neurons (normal fluorescence microscope); format: cell-based, mouse; settings: 200 μM solution administered for 1 minute, 36 to 37° C., fluorescence images at 10 and 30 minutes after initiation of washing
Protocol: C57BL/6J mice at the age of 13 to 15 days after birth (juvenile period) or at the age of 33 to 45 days after birth (maturation period) were deeply anesthetized with urethane (i.p. 1.6 g/kg) and decapitated according to a common procedure. Thereafter, the brain was taken out from each mouse and cooled by immersion in a cold Ringer's solution^note 1) (at 0° C.) for 1 to 2 minutes, and then, coronal brain slices with a thickness of 400 μm were prepared using a microslicer (ZERO 1, Dosaka EM Co., Ltd.). […]
In a homemade perfusion chamber (Non-patent document 2) mounted on a heating-type xy stage (Zeiss Tempcontrol 37-2) of an inverted fluorescence microscope from Zeiss Axiovert 135 (100 W, a xenon light source), a 35-mm glass bottom culture dish^note 4) was placed, and a glass coverslip (neurons were placed thereon according to the method described in (A)) placed in the dish was perfused with a HEPES solution for recording at a rate of 1.3 mL/min. […]
In the fluorescence detection, a 450-490 nm standard bandpass excitation filter manufactured by Zeiss, Inc., a 510 nm dichroic mirror, and a 515-565 nm emission filter were used without using an ND filter, and as the objective lens, a Zeiss Plan Neofluar ×20 lens (NA 0.50) was used. […]

acutely isolated neurons = test: Application of mixed solution of 2-NBDG and 2-TRLG to acutely isolated neurons (real-time laser scanning confocal fluorescence microscope); format: cell-based, mouse; settings: mixed solution of 20 μM 2-TRLG and 100 μM 2-NBDG administered for 1 minute, 24° C., image at 1 minute after stopping the administration
Protocol: The preparation of acutely isolated neurons was performed in the same manner as in Example 1.
Then, 10 μL of this 2 mM solution was dissolved in 1 mL of a glucose-free HEPES buffer solution^note 6) containing 100 μM 2-NBDG so as to dilute the 2 mM solution to 100-fold, whereby a mixed solution of 20 μM 2-TRLG and 100 μM 2-NBDG was obtained.
3 mL of a HEPES solution^note 2) was added to a 35-mm glass bottom culture dish^note 4) having a glass bottom to which neurons were adhered, and further 3 mL of mineral oil (M8410, Sigma CO., Ltd.) was laminated thereon. […]
A total of three detectors (channels): a photomultiplier detector for light in a green wavelength range (PMT1) and a photomultiplier detector for light in a red wavelength range (PMT2), and also a detector for transmitted light (PMTTrans) were used simultaneously, and 512×512 pixel images were captured. The detection sensitivity was set as follows: PMT1: 868 V, PMT2: 868 V, and PMTtrans: 245 V. Incidentally, the optimal values of the detection wavelength ranges of green fluorescence (500-580 nm) and red fluorescence (580-740 nm) were selected not on the basis of an emission filter system, but on the basis of a system using a prism spectroscope and a slit in combination (standard of TCS SP5, Leica, Inc.). […]

[3] = 2-NBDG, 2-TRLG and 2-NMALG mixed at 1:1:25 (molar ratio), excited by laser light at 405 nm (FIG. 6)

Row | SMILES | maximum fluorescence wavelength [1, 3] | difference in fluorescence detection between 2-NBDG and 2-NBDLG (Escherichia coli K12) | fluorescence due to the incorporation into the cells (Escherichia coli K12) | green fluorescence from the cell (incorporation into the cell) [2] | fluorescence based on incorporation into the cell (acutely isolated neurons) | maximum fluorescence wavelength ([1]; pH 7.4, mixed solution of 20 μM 2-TRLG and 100 μM 2-NBDG (FIG. 4)) [nm]
1 | CNc1ccccc1C(=O)N[C@H](C=O)[C@H](O)[C@@H](O)[C@@H](O)CO [2-NMALG, 2-[N-2-(N′-methylamino)benzoylamino]-2-deoxy-L-glucose] | around 450 nm | – | – | – | – | –
2 | O=[N+]([O-])c1ccc(NC2C(O)OC(CO)[C@@H](O)C2O)c2nonc12 (stereo partly drawn) [2-NBDG, 2-[N-(7-nitrobenz-2-oxa-1,3-diazol-4-yl)amino]-2-deoxy-D-glucose] | around 540 nm | a difference in the result of the fluorescence detection for 2-NBDG and 2-NBDLG was not observed | significant fluorescence due to the incorporation of 2-NBDG into the cells could be detected | green fluorescence from the cell was observed | only green fluorescence derived from 2-NBDG was observed | 540
3 | O=[N+]([O-])c1ccc(NC2C(O)OC(CO)[C@H](O)C2O)c2nonc12 (stereo partly drawn) [2-NBDLG, 2-[N-(7-nitrobenz-2-oxa-1,3-diazol-4-yl)amino]-2-deoxy-L-glucose] | – | a difference in the result of the fluorescence detection for 2-NBDG and 2-NBDLG was not observed | could not be detected | almost no green fluorescence from the cell was observed | – | –

— patent US9958450B2, “L-glucose derivatives having fluorescent chromophore” (HIROSAKI UNIVERSITY, priority 2008, dated 2018)
